Laboratory results from patent publication US20030073206A1, “Use of xylene monooxygenase for the oxidation of substituted monocyclic aromatic compounds” (priority 2001, published 2003).

Columns and labels:
[1] = biological target: T1, xylene monooxygenase (xylM and xylA) cloned from plasmid pWWO (Pseudomonas putida, UniProt P21395); experiment: Oxidation of p-xylene by Escherichia coli recombinant with cloned pWWO xylene monooxygenase genes (Clone 6f), HPLC of culture supernatant; type: cell-based; conditions: Clone 6f culture in M9 medium with p-xylene, 37° C., after 24 h of incubation
T1 construct: expressed in transfected cells; host or cells: Escherichia coli TOP10 carrying pCR2.1-TOPO with a 2.4 kb pWWO xylM-xylA PCR fragment from P. putida ATCC 33015 (Clone 6f)
T1 sequence (P21395 whole entry, the tested form may be a part): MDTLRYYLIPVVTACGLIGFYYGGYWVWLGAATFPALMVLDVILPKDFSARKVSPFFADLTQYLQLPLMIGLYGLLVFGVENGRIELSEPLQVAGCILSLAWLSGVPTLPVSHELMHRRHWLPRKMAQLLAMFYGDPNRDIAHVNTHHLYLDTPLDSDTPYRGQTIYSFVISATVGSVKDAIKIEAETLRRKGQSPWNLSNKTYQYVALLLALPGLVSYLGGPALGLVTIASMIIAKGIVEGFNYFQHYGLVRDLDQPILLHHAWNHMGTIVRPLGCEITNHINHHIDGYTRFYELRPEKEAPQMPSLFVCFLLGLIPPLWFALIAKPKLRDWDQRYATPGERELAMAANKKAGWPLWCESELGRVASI
Procedure: (§1) Standard M9 minimal medium were used to assay for oxidation of p-xylene by Escherichia coli with cloned xylene monooxygenase. The M9 medium consisted of 42.3 mM Na2HPO4, 22.1 mM KH2PO4, 8.6 mM NaCl, 18.7 mM NH4Cl, 2 mM MgSO4 and 0.1 mM CaCl2, 0.4% of glycerol was used as the carbon/energy source.
(§2) Analyses were performed on a Hewlett Packard 1100 series with a photo diode UV-visible detector set at 230 nm (primary wavelength), 254 nm (secondary wavelength) and 450 nm as background reference and a LC/MSD-ESI negative ion spectrophotometer. The column was a Hewlett Packard part # 880967.901 Zorbax® SB-C8 (4.6 mm×25 cm), purchased from Agilient Technologies (Palo Alto, Calif.). The column temperature was controlled at 50° C. Mobile phase was […] ammonium acetate (20 mL 1 M ammonium acetate in 1800 mL water (solvent-2=S-2)) and acetonitrile (solvent-1=S-1). […]
(§3) The conversion of p-xylene to 4-hydroxymethylbenzoic acid was monitored by reverse phase HPLC. […]
(§4) Escherichia coli strain TOP10(pCR®2.1 TOPO™) and Escherichia coli clones expressing xylene monooxygenase (Clone 4a and Clone 6f) were inoculated into 500 mL Erlenmyer flasks containing 50 mL of M-9 supplemented with tryptophan (100 μg/mL), glycerol (0.4%), casamino acids (0.4%) and 50 μg/mL ampicillin. […] The sample supernatants were passed through 0.22 μm Acrodisc® CR PFTE filters and analyzed for metabolites of p-xylene by HPLC.

[2] = system: xylene monooxygenase (xylM and xylA) cloned from Sphingomonas strain ASU1; experiment: Oxidation of p-xylene by Escherichia coli recombinant with cloned ASU1 xylene monooxygenase genes (Clone 4a), HPLC of culture supernatant; type: cell-based; conditions: Clone 4a culture in M9 medium with p-xylene, 37° C., after 24 h of incubation
Procedure: as §1, §2, §3, §4

Sphingomonas strain ASU1 = experiment: Carbon source utilization for strain ASU1 (growth on S12 agar with aromatic compounds); type: cell-based, Sphingomonas sp.; conditions: compound as sole source of carbon and energy, 28° C.
Procedure: S12 agar was used to isolate bacteria from liquid enrichment cultures that grow on 2,6-dimethylnaphthalene (2,6-DMN) and to test isolates for growth with various sources of carbon and energy. S12 agar was prepared by adding 1.5% Noble agar (DIFCO) to S12 medium.
Bacteria that grow on 2,6-DMN were isolated from an enrichment culture. The enrichment culture was established by inoculating 0.1 mL of activated sludge into 10 mL of S12 medium in a 125 mL screw cap Erlenmeyer flask. The activated sludge was obtained from a wastewater treatment facility in Ponco City. The enrichment culture was supplemented with adding yeast extract (0.001 % final concentration) by adding a few flakes of 2,6-DMN directly to the culture medium. The enrichment culture was incubated at 28° C. with reciprocal shaking. The culture was diluted every 4 to 7 d by replacing 9 mL of the culture with the same volume of S12 medium with 0.001% yeast extract and a few additional flakes of 2,6-DMN. Bacteria that utilized 2,6-DMN as a sole source of carbon and energy were isolated by spreading samples of the enrichment culture onto S12 agar. 2,6-DMN was placed on the interior of each Petri dish lid. The Petri dishes were sealed with parafilm and incubated upside down at 28° C. Representative bacterial colonies were then tested for the ability to use 2,6-DMN as a sole source of carbon and energy. […]

Structure (SMILES): Cc1ccc(C)cc1 [p-xylene]
- p-xylene metabolites detected by HPLC [1]: Three p-xylene metabolites were detected
- p-xylene metabolites detected by HPLC [2]: Three p-xylene metabolites were detected

Structure (SMILES): c1ccccc1 [Benzene]
- Growth on Carbon Source (Sphingomonas strain ASU1): unable to utilize

Structure (SMILES): Cc1ccc2cc(C)ccc2c1 [2,6-dimethylnaphthalene]
- Growth on Carbon Source (Sphingomonas strain ASU1; listed as 2,6-DMN): able to grow
